Assay results taken from patent publication US8481738B2, “Gonadotropin-releasing hormone receptor antagonists and methods relating thereto” (Neurocrine Biosciences, Inc., priority 2007, dated 2013).
pKi: −log10 of the molar value.

Each compound was assayed against T1, human GnRH receptor (Homo sapiens, UniProt P30968) (assay: Peptide competition radioligand binding displacement assay, human GnRH receptor membranes). Conditions: one or more of the peptide competition human receptor binding assays.
T1 construct: expressed in transfected cells; host or cells: RBL cells, stably transfected (in general)
T1 sequence (P30968 1-328): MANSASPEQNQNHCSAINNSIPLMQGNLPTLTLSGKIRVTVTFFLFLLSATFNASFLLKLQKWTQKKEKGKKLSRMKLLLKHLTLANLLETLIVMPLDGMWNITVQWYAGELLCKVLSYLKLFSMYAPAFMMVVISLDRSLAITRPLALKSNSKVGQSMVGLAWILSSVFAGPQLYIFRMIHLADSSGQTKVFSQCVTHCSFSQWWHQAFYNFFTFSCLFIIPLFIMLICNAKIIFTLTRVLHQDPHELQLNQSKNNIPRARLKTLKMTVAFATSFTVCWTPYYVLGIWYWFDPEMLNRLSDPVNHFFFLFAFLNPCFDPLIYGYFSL
Experimental: cDNA's of human, rhesus macaque, rabbit, dog and rat GnRH receptors are cloned into pcDNA3.1 (+) (Invitrogen). Full length sequences of all receptors are confirmed by DNA sequencing. HEK 293, CHO, COS-7, or rat basophilic leukemia (RBL) cells are stably transfected with human, rat, or macaque GnRH receptors and high expressing single cell clones (Bmax≧0.4 pMol/mg membrane protein) are isolated and maintained in Dulbecco's Modified Eagles Medium (DMEM) with following supplements: 10 mM HEPES; 2 mM L-glutamine; 1 mM Sodium Pyruvate; 50 U/mL penicillin, 50 μg/mL streptomycin; 10% Heat-inactivated Fetal Bovine Serum and 200 μg/mL Geneticin (G-418-Sulfate). Non-essential amino acids (0.1 mM) (Irvine Scientific; Santa Ana, Calif.) are included in the RBL cell media.
In general, initial peptide radioligand binding assays are carried out using membranes from stably transfected RBL cells. RBL stable clones are found to more consistently express high levels of GnRH receptor and are therefore used for subsequent binding studies as well as Ca^++ flux and inositol phosphate accumulation assays. Transiently transfected COS-7 cells are used for preparation of membranes containing GnRH receptors from multiple species (as well as those of mutant receptors for other studies) because of the convenience for rapidly analyzing multiple receptors.
HEK293 cells stably transfected with the human GnRH receptor are grown for two days after achieving confluence then are harvested by striking tissue culture flasks against a firm surface. Cells are collected by centrifugation at 1000 g for 5 minutes. Cell pellets are resuspended in 5% sucrose and homogenized using a polytron homogenizer for two 15 second homogenization steps. Cell homogenates are then centrifuged for 5 minutes at 3000 g to remove nuclei and the supernatant subsequently centrifuged for 30 minutes at 44,000 g to collect the membrane fraction. The membrane pellet is resuspended in GnRH binding buffer (10 mM HEPES, pH 7.5, 150 mM NaCl and 0.1% BSA) and aliquots immediately snap-frozen in liquid nitrogen and stored at −80° C. Protein content of the membrane suspension is determined using the Bio-Rad protein assay kit (Bio-Rad).
RBL cells stably transfected with the human GnRH receptor are grown to 80% confluency prior to harvesting. The cells are incubated at 37° C. for 10 min in 0.5 mM EDTA/PBS (Ca^++, Mg^++ free), and are dislodged from the plate by gentle rapping of the flasks. Cells are collected and pelleted by centrifugation at 1000 g for 5 minutes. Cell pellets are resuspended in buffer (DPBS supplemented with 10 mM MgCl2, 2 mM EGTA, pH=7.4), and cell lysis is performed using a pressure cell and applying N2 at a pressure of 900 psi for 30 min at 4° C. Unbroken cells and larger debris were removed by centrifugation at 1200 g for 10 min at 4° C. The cell membrane supernatant is then centrifuged at 45,000 g and the resulting membrane pellet is resuspended in assay buffer and homogenized on ice using a tissue homogenizer. Protein concentrations are determined using the Coomassie Plus Protein Reagent kit. Membranes are aliquoted and stored at −80° C. until ready for use.
COS-7 cells transiently transfected with GnRH receptors from different species (human, macaque, dog, rabbit, rat) or mutant GnRH receptors are prepared by bulk electroporation. COS-7 cells are obtained from American Type Cell Culture (Manassas, Va.) and are maintained in Dulbeccos's modified Eagle's medium (DMEM) (MediaTech Inc., Herndon, Va.) containing 10% fetal bovine serum, 10 mM HEPES, 2 mM L-glutamine, 1 mM sodium pyruvate, 50 U/mL penicillin, 50 μg/mL streptomycin. COS-7 cells are seeded in 500 cm^2 tissue culture plates and grown to confluency prior to cell transfection. […]

| Structure (SMILES) | pKi |
| --- | --- |
| COc1ccccc1N(C)C(=O)c1ccc(Cl)c(-c2ncc(Cl)cc2Cl)c1 [19-2, 4-chloro-3-(3,5-dichloro-pyridin-2-yl)-N-(2-methoxy-phenyl)-N-methyl-benzamide] | ≥ 7.00 |
| CN(C(=O)c1ccc(Cl)c(-c2ncc(Cl)cc2Cl)c1)c1cccc(F)c1 [19-3] | ≥ 7.00 |
| COC(=O)c1ccccc1N(C)C(=O)c1ccc(Cl)c(-c2ncc(Cl)cc2Cl)c1 [19-6] | ≥ 7.00 |
| COc1c(Cl)cccc1N(C)C(=O)c1ccc(Cl)c(-c2ncc(Cl)cc2Cl)c1 [19-7] | ≥ 7.00 |
| Cc1cccc(C)c1N(C)C(=O)c1ccc(Cl)c(-c2ncc(Cl)cc2Cl)c1 [19-8] | ≥ 7.00 |
| COc1cccc(N(C)C(=O)c2ccc(Cl)c(-c3ncc(Cl)cc3Cl)c2)c1 [19-9] | ≥ 7.00 |
| Cc1cccc(N(C)C(=O)c2ccc(Cl)c(-c3ncc(Cl)cc3Cl)c2)c1C [19-10] | ≥ 7.00 |
| Cc1ccccc1N(C)C(=O)c1cc(-c2cnc(C(F)(F)F)cc2C#N)c(Cl)cc1OCCCC(=O)O [20-1, 4-[5-Chloro-4-(4-cyano-6-trifluoromethyl-pyridin-3-yl)-2-(methyl-o-tolyl-carbamoyl)-phenoxy]-butyric acid] | ≥ 7.00 |
| Cc1ccccc1N(C)C(=O)c1cc(-c2cnc(Cl)cc2Cl)c(Cl)cc1OCCCC(=O)O [20-2] | ≥ 7.00 |
| Cc1ccccc1N(C)C(=O)c1cc(-c2nc3ccccc3cc2C#N)c(Cl)cc1OCCCC(=O)O [20-3] | ≥ 7.00 |
| COc1cccc(C)c1N(C)C(=O)c1cc(-c2cnc(C(F)(F)F)cc2C#N)c(Cl)cc1OCCCCO [21-1, 4-Chloro-5-(4-cyano-6-trifluoromethyl-pyridin-3-yl)-2-(4-hydroxy-butoxy)-N-(2-methoxy-6-methyl-phenyl)-N-methyl-benzamide] | ≥ 7.00 |
| COc1cccc(C)c1N(C)C(=O)c1cc(-c2cnc(C#N)cc2C)c(Cl)cc1OCCCCO [21-2] | ≥ 7.00 |
| COc1cccc(C)c1N(C)C(=O)c1cc(-c2nc3ccccc3cc2C#N)c(Cl)cc1OCCCCO [21-3] | ≥ 7.00 |
| Cc1cccc(C)c1N(C)C(=O)c1cc(-c2cnc(C(F)(F)F)cc2C#N)c(Cl)cc1OCCCCO [21-4] | ≥ 7.00 |
| Cc1cc(C#N)ncc1-c1cc(C(=O)N(C)c2c(C)cccc2C)c(OCCCCO)cc1Cl [21-5] | ≥ 7.00 |
| Cc1cccc(C)c1N(C)C(=O)c1cc(-c2nc3ccccc3cc2C#N)c(Cl)cc1OCCCCO [21-6] | ≥ 7.00 |
| COc1cccc(C)c1N(C)C(=O)c1cc(-c2cnc(C(F)(F)F)cc2C#N)c(Cl)cc1OCCO [21-7] | ≥ 7.00 |
| COc1cccc(C)c1N(C)C(=O)c1cc(-c2cnc(C(F)(F)F)cc2C#N)c(Cl)cc1OCCCO [21-8] | ≥ 7.00 |
| COc1cccc(C)c1N(C)C(=O)c1cc(-c2cnc(C(F)(F)F)cc2C#N)c(Cl)cc1OCCCC(=O)O [22-1, 4-{5-Chloro-4-(4-cyano-6-trifluoromethyl-pyridin-3-yl)-2-[(2-methoxy-6-methyl-phenyl)-methyl-carbamoyl]-phenoxy}-butyric acid] | ≥ 7.00 |
| COc1cccc(C)c1N(C)C(=O)c1cc(-c2cnc(C#N)cc2C)c(Cl)cc1OCCCC(=O)O [22-2] | ≥ 7.00 |
| COc1cccc(C)c1N(C)C(=O)c1cc(-c2nc3ccccc3cc2C#N)c(Cl)cc1OCCCC(=O)O [22-3] | ≥ 7.00 |
| Cc1cccc(C)c1N(C)C(=O)c1cc(-c2cnc(C(F)(F)F)cc2C#N)c(Cl)cc1OCCCC(=O)O [22-4] | ≥ 7.00 |

| Structure (SMILES) | pKi |
| --- | --- |
| Cc1cccc(C)c1N(C)C(=O)c1cc(-c2nc3ccccc3cc2C#N)c(Cl)cc1OCCCC(=O)O [22-6] | ≥ 7.00 |
| Cc1cc(C#N)ncc1-c1cc(C(=O)N(C)c2c(C)cccc2C)c(OCCCC(=O)O)cc1Cl [22-8] | ≥ 7.00 |
| COc1cccc(C)c1N(C)C(=O)c1cc(-c2cnc(C(F)(F)F)cc2C#N)c(Cl)cc1OCC(=O)O [22-9] | ≥ 7.00 |
| COc1cccc(C)c1N(C)C(=O)c1cc(-c2cnc(C(F)(F)F)cc2C#N)c(Cl)cc1OCCC(=O)O [22-10] | ≥ 7.00 |
| COc1cccc(C)c1N(C)C(=O)c1cc(-c2cnc(C(F)(F)F)cc2C#N)c(Cl)cc1OCCCN [23-1, 2-(3-Amino-propoxy)-4-chloro-5-(4-cyano-6-trifluoromethyl-pyridin-3-yl)-N-(2-methoxy-6-methyl-phenyl)-N-methyl-benzamide] | ≥ 7.00 |
| COc1ccccc1N(C)C(=O)c1ccc(Cl)c(-c2cnc(C(N)=O)cc2C)c1 [24-2, 5-{2-chloro-5-[(2-methoxy-phenyl)-methyl-carbamoyl]-phenyl}-4-methyl-pyridine-2-carboxylic acid amide] | ≥ 7.00 |
| COc1cccc(C)c1N(C)C(=O)c1ccc(Cl)c(-c2cnc(SC)cc2C)c1 [26-1, 4-Chloro-N-(2-methoxy-6-methyl-phenyl)-N-methyl-3-(4-methyl-6-methyl-sulfanylpyridin-3-yl)-benzamide] | ≥ 7.00 |
| COc1ccccc1N(C)C(=O)c1ccc(Cl)c(-c2c(Cl)cc(Cl)c[n+]2[O-])c1 [27-1, 4-Chloro-3-(3,5-dichloro-1-oxy-pyridin-2-yl)-N-(2-methoxy-phenyl)-N-methyl-benzamide] | ≥ 7.00 |
| CN(C(=O)c1ccc(Cl)c(-c2cnc(C(F)(F)F)cc2C#N)c1)c1ccccc1OCCCc1nnn[nH]1 [28-1, 4-Chloro-3-(4-cyano-6-trifluoromethyl-pyridin-3-yl)-N-methyl-N-{2-[3-(1H-tetrazol-5-yl)-propoxy]-phenyl}-benzamide] | ≥ 7.00 |
| Cc1c(F)cccc1N(C)C(=O)c1ccc(Cl)c(-n2c(C)cc(C(F)(F)F)nc2=O)c1 [30-7] | ≥ 7.00 |
| Cc1cc(C(F)(F)F)nc(=O)n1-c1cc(C(=O)N(C)c2cc(F)ccc2Cl)ccc1Cl [30-9] | ≥ 7.00 |
| COc1cccc(C)c1N(C)C(=O)c1ccc(Cl)c(-n2c(C)cc(C(F)(F)F)nc2=O)c1 [30-10] | ≥ 7.00 |
| Cc1cccc(C)c1N(C)C(=O)c1ccc(Cl)c(-n2c(C)cc(C(F)(F)F)nc2=O)c1 [30-11] | ≥ 7.00 |
| Cc1c(Cl)cccc1N(C)C(=O)c1ccc(Cl)c(-n2c(C)cc(C(F)(F)F)nc2=O)c1 [30-12] | ≥ 7.00 |
| Cc1cc(C(F)(F)F)nc(=O)n1-c1cc(C(=O)N(C)c2cccc(F)c2F)ccc1Cl [30-13] | ≥ 7.00 |
| Cc1cccc(N(C)C(=O)c2ccc(Cl)c(-n3c(C)cc(C(F)(F)F)nc3=O)c2)c1C [30-14] | ≥ 7.00 |
| COc1ccccc1N(C)C(=O)c1ccc(Cl)c(-n2c(C)cc(C(F)(F)F)nc2=O)c1 [30-15] | ≥ 7.00 |
| Cc1cc(C(F)(F)F)nc(=O)n1-c1cc(C(=O)N(C)c2ccccc2F)ccc1Cl [30-16] | ≥ 7.00 |
| Cc1cc(C(F)(F)F)nc(=O)n1-c1cc(C(=O)N(C)c2cccc(F)c2)ccc1Cl [30-17] | ≥ 7.00 |
| CN(C(=O)c1ccc(Cl)c(-c2cnc(C(F)(F)F)cc2C#N)c1)c1ccccc1OCCc1n[nH]c(=O)o1 [31-1, 4-Chloro-3-(4-cyano-6-trifluoromethyl-pyridin-3-yl)-N-methyl-N-{2-[2-(5-oxo-4,5-dihydro-[1,3,4]oxadiazol-2-yl)ethoxy]-phenyl}-benzamide] | ≥ 7.00 |
| CN(C(=O)c1ccc(Cl)c(-c2nc3cccc(F)c3cc2C#N)c1)c1ccccc1OCCCC(=O)O [33-1, 4-(2-{[4-Chloro-3-(3-cyano-5-fluoro-quinolin-2-yl)-benzoyl]-methyl-amino}-phenoxy)-butyric acid] | ≥ 7.00 |
| CN(C(=O)c1ccc(Cl)c(-c2nc3c(F)cccc3cc2C#N)c1)c1ccccc1OCCCC(=O)O [33-2] | ≥ 7.00 |
